# According to ChEMBL document CHEMBL5329192, “Synthesis, biological activities, and future perspectives of steroidal monocyclic pyridines” (RSC Med Chem, 2023):
# What was measured:
# [1] = test system: EC9706; experiment: Antiproliferative activity against human EC9706 assessed as reduction in cell proliferation incubated for 72 hrs by MTT assay; type: functional, cell-based; conditions: EC9706, 72 h
# [2] = test system: MGC-803; experiment: Antiproliferative activity against human MGC-803 cells assessed as cell growth inhibition measured after 48 hrs by MTT assay; type: functional, cell-based; conditions: MGC-803, 48 h
# [3] = test system: ECa-109 cell line; experiment: Antiproliferative activity against human EC109 cells assessed as reduction in cell proliferation incubated for 72 hrs by MTT assay; type: functional, cell-based; conditions: ECa-109, 72 h
# [4] = Antiproliferative activity against human […] cells assessed as reduction in cell viability by MTT assay; type: functional, cell-based
# [5] = test system: HeLa; experiment: Antiproliferative activity against human HeLa cells assessed as reduction in cell viability by MTT assay; type: functional, cell-based
# [6] = Selectivity index, ratio of CC50 for cytotoxicity against human HEp-2 cells to EC50 for antiviral activity against Respiratory syncytial virus infected in human HEp-2 cells; type: toxicity, cell-based; conditions: read-out: Ratio CC50/EC50
# [7] = test system: Respiratory syncytial virus; experiment: Antiviral activity against Respiratory syncytial virus infected in human HEp-2 cells assessed as inhibition of virus-induced cytopathic effect measured after 6 days by CellTiter-Glo assay; type: functional, organism-based; conditions: HEp-2, 144 h
# [8] = Cytotoxicity against human HEp-2 cells assessed as reduction in cell viability incubated for 48 hrs by MTT assay; type: toxicity, cell-based
# [9] = Cytotoxicity against human RWPE-1 cells assessed as reduction in cell viability incubated for 48 hrs by SRB assay; type: toxicity, cell-based
# [10] = test system: PC-3; experiment: Cytotoxicity against human PC-3 cells assessed as reduction in cell viability incubated for 48 hrs by SRB assay; type: toxicity, cell-based; conditions: PC-3, 48 h
# [11] = test system: PC-3; experiment: Cytotoxicity against human PC-3 cells assessed as reduction in cell viability incubated for 72 hrs by MTT assay; type: functional, cell-based; conditions: PC-3, 72 h
# [12] = Acute toxicity in ip dosed albino rat administered twice daily for 14 days; type: organism-based; conditions: in vivo, time 14 day
# [13] = test system: Rattus norvegicus; experiment: Anti-anabolic activity against albino rat assessed as mass gain of levator ani-muscle at 0.1 mg/kg, sc administered for 7 days; type: functional; conditions: time 7 day
# [14] = species on record: Rattus norvegicus; experiment: Ratio of anti-anabolic activity against albino rat assessed as reduction in mass of levator ani-muscle to anti-androgenic activity against albino rat assessed as mass gain of prostate gland; type: functional
# [15] = test system: Rattus norvegicus; experiment: Anti-androgen activity against albino rat assessed as mass gain of prostate gland at 0.1 mg/kg, sc administered for 7 days; type: functional; conditions: time 7 day
# [16] = test system: MCF7; experiment: Cytotoxicity against human MCF7 cells assessed as reduction in cell viability incubated for 72 hrs by MTT assay; type: functional, cell-based; conditions: MCF7, 72 h
# [17] = test system: MGC-803; experiment: Cytotoxicity against human MGC-803 cells assessed as reduction in cell viability incubated for 72 hrs by MTT assay; type: functional, cell-based; conditions: MGC-803, 72 h
# [18] = test system: MCF7; experiment: Antiproliferative activity against human MCF7 cells assessed as reduction in cell growth incubated for 48 hrs by MTT assay; type: functional, cell-based; conditions: MCF7, 48 h
# [19] = test system: HepG2; experiment: Antiproliferative activity against human HepG2 cells assessed as reduction in cell growth incubated for 48 hrs by MTT assay; type: functional, cell-based; conditions: HepG2, 48 h
# [20] = test system: A549; experiment: Cytotoxicity against human A549 cells assessed as reduction in cell viability incubated for 72 hrs by MTT assay; type: functional, cell-based; conditions: A549, 72 h
# [21] = test system: HeLa; experiment: Antiproliferative activity against human HeLa cells assessed as reduction in cell growth incubated for 48 hrs by MTT assay; type: functional, cell-based
# [22] = test system: SK-OV-3; experiment: Antiproliferative activity against human SK-OV-3 cells assessed as reduction in cell growth incubated for 48 hrs by MTT assay; type: functional, cell-based; conditions: SK-OV-3, 48 h
# [23] = test system: EC9706; experiment: Cytotoxicity against human EC9706 cells assessed as reduction in cell growth incubated for 48 hrs by MTT assay; type: functional, cell-based; conditions: EC9706, 48 h
# [24] = test system: MGC-803; experiment: Cytotoxicity against human MGC-803 cells assessed as reduction in cell growth incubated for 48 hrs by MTT assay; type: functional, cell-based; conditions: MGC-803, 48 h
# [25] = test system: ECa-109 cell line; experiment: Cytotoxicity against human EC109 cells assessed as reduction in cell growth incubated for 48 hrs by MTT assay; type: functional, cell-based; conditions: ECa-109, 48 h
smiles,measurement,setting,value
CCOC(=O)c1cc2c(nc1C)[C@@]1(C)CC[C@H]3[C@@H](CC=C4C[C@@H](OC(C)=O)CC[C@@]43C)[C@@H]1C2,IC50,[1],34.7 µM
same,IC50,[2],12.2 µM
same,EC50,[3],16.1 µM
CC(=O)O[C@H]1CC[C@@]2(C)C(=CC[C@@H]3[C@@H]2CC[C@]2(C)c4cc(-c5ccc(F)cc5)ncc4C[C@@H]32)C1,IC50,[4],≥ 100 µM
same,IC50,[5],≥ 100 µM
COC(=O)c1cc2c(nc1C)[C@@]1(C)CC[C@H]3[C@@H](CC=C4C[C@@H](OC(C)=O)CC[C@@]43C)[C@@H]1C2,IC50,[1],26.5 µM
same,IC50,[2],16.7 µM
same,EC50,[3],17.1 µM
CCOC(=O)c1cc2c(cn1)C[C@H]1[C@@H]3CC=C4C[C@@H](OC(C)=O)CC[C@]4(C)[C@H]3CC[C@]21C,IC50,[4],≥ 100 µM
same,IC50,[5],≥ 100 µM
CC(=O)O[C@H]1CC[C@@]2(C)C(=CC[C@H]3[C@@H]4CC[C@H](c5cc(-c6ccnc(Br)c6)c(C#N)c(N)n5)[C@@]4(C)CC[C@@H]32)C1,selectivity ratio,[6],172
same,EC50,[7],3.13 µM
same,CC50 at 48 h,[8],539 µM
CCOC(=O)c1cc2c(nc1C(=O)OCC)[C@@]1(C)CC[C@H]3[C@@H](CC=C4C[C@@H](O)CC[C@@]43C)[C@@H]1C2,IC50 at 48 h,[9],501 µM
same,IC50,[10],95.4 µM
C[C@]12CC[C@H](O)CC1=CC[C@@H]1[C@@H]2CC[C@]2(C)C(c3cccnc3)=CC[C@@H]12 [ABIRATERONE],IC50 at 48 h,[9],645 µM
same,IC50,[11],17.2 µM
same,IC50,[10],91 µM
CCOc1nc(-c2ccc(F)cc2)c2c(c1C#N)[C@@]1(C)CC[C@H]3[C@@H](CC[C@H]4C[C@@H](O)CC[C@@]43C)[C@@H]1C2,LD50 at 336 h,[12],4890 mg/kg
same,Activity,[13],0.191 g
same,Ratio,[14],1.55
same,Activity,[15],0.123 g
CCOC(=O)c1cc2c(nc1-c1ccccc1)[C@@]1(C)CC[C@H]3[C@@H](CC=C4C[C@@H](OC(C)=O)CC[C@@]43C)[C@@H]1C2,IC50 at 48 h,[9],375 µM
same,IC50,[10],437 µM
CC(=O)O[C@H]1CC[C@@]2(C)C(=CC[C@H]3[C@@H]4CC[C@H](c5cc(-c6ccccc6Cl)c(C#N)c(N)n5)[C@@]4(C)CC[C@@H]32)C1,selectivity ratio,[6],21.4
same,EC50,[7],14.1 µM
same,CC50 at 48 h,[8],303 µM
O=c1[nH]cc(F)c(=O)[nH]1 [FLUOROURACIL],IC50,[16],10 µM
same,IC50,[17],15.7 µM
same,IC50,[18],25.4 µM
same,IC50,[19],66.8 µM
same,IC50,[1],2.45 µM
same,IC50,[2],26.4 µM
same,IC50,[11],6.7 µM
same,IC50,[20],5.7 µM
same,IC50,[21],18.8 µM
same,EC50,[3],21.1 µM
same,IC50,[22],25 µM
CCOC1(OCC)NC(c2ccc(F)cc2)=C2C[C@H]3[C@@H]4CC[C@H]5C[C@@H](O)CC[C@]5(C)[C@H]4CC[C@]3(C)C2=C1C#N,LD50 at 336 h,[12],4900 mg/kg
same,Activity,[13],0.622 g
same,Ratio,[14],1.44
same,Activity,[15],0.432 g
CC(=O)O[C@H]1CC[C@@]2(C)C(=CC[C@@H]3[C@@H]2CC[C@]2(C)c4nc(N)c(C#N)cc4C[C@@H]32)C1,IC50,[23],58.4 µM
same,IC50,[24],16.3 µM
same,IC50,[25],20.5 µM
C[C@]12CC[C@H](O)C[C@@H]1CC[C@@H]1[C@@H]2CC[C@]2(C)c3c(c(-c4ccc(Cl)cc4)[nH]c(=O)c3C#N)C[C@@H]12,LD50 at 336 h,[12],4920 mg/kg
same,Activity,[13],0.314 g
same,Ratio,[14],1.34
same,Activity,[15],0.234 g
CC(=O)O[C@H]1CC[C@@]2(C)C(=CC[C@@H]3[C@@H]2CC[C@]2(C)c4cc(-c5ccc(C)cc5)ncc4C[C@@H]32)C1,IC50,[4],≥ 100 µM
same,IC50,[5],≥ 100 µM
C[C@]12CC[C@H](O)C[C@@H]1CC[C@@H]1[C@@H]2CC[C@]2(C)c3c(C#N)c(S)nc(-c4ccc(Cl)cc4)c3C[C@@H]12,LD50 at 336 h,[12],4910 mg/kg
same,Activity,[13],0.48 g
same,Ratio,[14],1.39
same,Activity,[15],0.345 g
CCOc1nc(-c2ccccc2)c2c(c1C#N)[C@@]1(C)CC[C@H]3[C@@H](CC[C@H]4C[C@@H](O)CC[C@@]43C)[C@@H]1C2,LD50 at 336 h,[12],4890 mg/kg
same,Activity,[13],0.494 g
same,Ratio,[14],1.54
same,Activity,[15],0.321 g
CC(=O)O[C@H]1CC[C@@]2(C)C(=CC[C@H]3[C@@H]4CC[C@H](c5cc(-c6ccccc6F)c(C#N)c(N)n5)[C@@]4(C)CC[C@@H]32)C1,selectivity ratio,[6],23.2
same,EC50,[7],12.4 µM
same,CC50 at 48 h,[8],288 µM
C[C@]12CC[C@H]3[C@@H](CCC4=CC(=O)CC[C@@]43C)[C@@H]1CC[C@@H]2O [TESTOSTERONE],LD50 at 336 h,[12],2750 mg/kg
same,Activity,[13],0.204 g
same,Ratio,[14],0.27
same,Activity,[15],0.76 g
CCOC(=O)c1cc2c(nc1-c1ccccc1)[C@@]1(C)CC[C@H]3[C@@H](CC=C4C[C@@H](O)CC[C@@]43C)[C@@H]1C2,IC50 at 48 h,[9],189 µM
same,IC50,[10],197 µM
NC(=O)c1ncn([C@@H]2O[C@H](CO)[C@@H](O)[C@H]2O)n1 [RIBAVIRIN],selectivity ratio,[6],32.5
same,EC50,[7],20.1 µM
same,CC50 at 48 h,[8],653 µM
C[C@]12CCC(=O)C[C@@H]1CC[C@@H]1[C@@H]2CC[C@]2(C)[C@@H](O)CC[C@@H]12 [STANOLONE],LD50 at 336 h,[12],3410 mg/kg
same,Activity,[13],0.18 g
same,Activity,[15],0.2 g
C[C@]12CC[C@H](O)C[C@@H]1CC[C@@H]1[C@@H]2CC[C@]2(C)c3c(C#N)c(S)nc(-c4ccccc4)c3C[C@@H]12,LD50 at 336 h,[12],4910 mg/kg
same,Activity,[13],0.577 g
same,Ratio,[14],1.37
same,Activity,[15],0.421 g
CCOC(=O)c1cc2c(nc1C(=O)OCC)[C@@]1(C)CC[C@H]3[C@@H](CC=C4C[C@@H](OC(C)=O)CC[C@@]43C)[C@@H]1C2,IC50 at 48 h,[9],218 µM
same,IC50,[10],100 µM
CCOC(=O)c1cc2c(nc1CCl)[C@@]1(C)CC[C@H]3[C@@H](CC=C4C[C@@H](OC(C)=O)CC[C@@]43C)[C@@H]1C2,IC50,[1],37.6 µM
same,IC50,[2],9.84 µM
same,EC50,[3],15.5 µM
CC(=O)O[C@H]1CC[C@@]2(C)C(=CC[C@@H]3[C@@H]2CC[C@]2(C)c4nc(C)c(C(C)=O)cc4C[C@@H]32)C1,IC50,[1],30.6 µM
same,IC50,[2],10.3 µM
same,EC50,[3],14.3 µM
CCCc1cc2c(cn1)C[C@H]1[C@@H]3CC=C4C[C@@H](OC(C)=O)CC[C@]4(C)[C@H]3CC[C@]21C,IC50,[4],≥ 100 µM
same,IC50,[5],≥ 100 µM
CC(=O)O[C@H]1CC[C@@]2(C)C(=CC[C@@H]3[C@@H]2CC[C@]2(C)c4cc(-c5ccccc5)ncc4C[C@@H]32)C1,IC50,[4],≥ 100 µM
same,IC50,[5],≥ 100 µM
CCCCc1cc2c(cn1)C[C@H]1[C@@H]3CC=C4C[C@@H](OC(C)=O)CC[C@]4(C)[C@H]3CC[C@]21C,IC50,[4],≥ 100 µM
same,IC50,[5],≥ 100 µM
COc1cccc2c1C(=O)c1c(O)c3c(c(O)c1C2=O)C[C@@](O)(C(=O)CO)C[C@@H]3O[C@H]1C[C@H](N)[C@H](O)[C@H](C)O1 [DOXORUBICIN],IC50,[4],9 µM
CCOC1(OCC)NC(c2ccccc2)=C2C[C@H]3[C@@H]4CC[C@H]5C[C@@H](O)CC[C@]5(C)[C@H]4CC[C@]3(C)C2=C1C#N,LD50 at 336 h,[12],4900 mg/kg
same,Activity,[13],0.486 g
same,Ratio,[14],1.41
same,Activity,[15],0.345 g
